Read-outs that look alike come from different tables or passages of the source.
Assays:
Type in all cases: cell-based
hGLP-1R = hGLP-1R (Homo sapiens, UniProt P43220); assay: Functional cAMP formation (HTRF) in HEK-293 clonal cells expressing hGLP-1R, 0.1% bovine casein, without or with 1.0% human serum albumin; design: expressed in transfected cells; conditions: percent of maximal response to GLP-1(7-36)NH2
Procedure: (§1) After a 30-min incubation at 37° C., the resulting increase in intracellular cAMP is quantitatively determined using a CisBio cAMP Dynamic 2 HTRF Assay Kit (62AM4PEJ). Briefly, cAMP levels within the cell are detected by adding the cAMP-d2 conjugate in cell lysis buffer (10 µL) followed by the antibody anti-cAMP-Eu^3+-Cryptate, also in cell lysis buffer (10 µL). The resulting competitive assay is incubated for at least 60 min at room temperature, and then is detected using a PerkinElmer Envision® instrument with excitation at 320 nm and emission at 665 nm and 620 nm. Envision units (emission at 665 nm/620 nm* 10,000) are inversely proportional to the amount of cAMP present and are converted to nM cAMP per well us-ing a cAMP standard curve. […] A relative EC50 value and percent top (Emax) are derived by non-linear regression analysis using the percent maximal response vs. the concentration of peptide added, fitted to a four-parameter logistic equation.

hGIPR = molecular target: T1, hGIPR (Homo sapiens, UniProt P48546); assay: Functional cAMP formation (HTRF) in HEK-293 clonal cells expressing hGIPR, 0.1% bovine casein, without or with 1.0% human serum albumin
T1 construct: expressed in transfected cells
T1 sequence (P48546 22-466): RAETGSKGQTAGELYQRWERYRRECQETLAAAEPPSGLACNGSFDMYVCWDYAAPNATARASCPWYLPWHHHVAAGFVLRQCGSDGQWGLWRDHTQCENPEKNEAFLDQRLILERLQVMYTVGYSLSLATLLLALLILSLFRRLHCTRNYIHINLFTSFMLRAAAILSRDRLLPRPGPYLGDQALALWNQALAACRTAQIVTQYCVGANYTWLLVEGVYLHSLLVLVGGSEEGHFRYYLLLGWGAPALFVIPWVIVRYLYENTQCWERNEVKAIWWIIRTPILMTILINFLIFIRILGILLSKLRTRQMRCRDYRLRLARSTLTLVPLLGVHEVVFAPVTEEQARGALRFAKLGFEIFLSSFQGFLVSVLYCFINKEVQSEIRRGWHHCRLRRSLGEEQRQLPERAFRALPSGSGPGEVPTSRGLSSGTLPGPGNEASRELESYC
Procedure: as §1

hGCGR = molecular target: T2, hGCGR (Homo sapiens, UniProt P47871); assay: Functional cAMP formation (HTRF) in HEK-293 clonal cells expressing hGCGR, 0.1% bovine casein, without or with 1.0% human serum albumin; conditions: cAMP, incubated at 37° C., 0.1% bovine casein (no human serum albumin); geometric mean; read-out: hGCGR EC50, nM (SEM, n)
T2 construct: expressed in transfected cells
T2 sequence (P47871 26-477): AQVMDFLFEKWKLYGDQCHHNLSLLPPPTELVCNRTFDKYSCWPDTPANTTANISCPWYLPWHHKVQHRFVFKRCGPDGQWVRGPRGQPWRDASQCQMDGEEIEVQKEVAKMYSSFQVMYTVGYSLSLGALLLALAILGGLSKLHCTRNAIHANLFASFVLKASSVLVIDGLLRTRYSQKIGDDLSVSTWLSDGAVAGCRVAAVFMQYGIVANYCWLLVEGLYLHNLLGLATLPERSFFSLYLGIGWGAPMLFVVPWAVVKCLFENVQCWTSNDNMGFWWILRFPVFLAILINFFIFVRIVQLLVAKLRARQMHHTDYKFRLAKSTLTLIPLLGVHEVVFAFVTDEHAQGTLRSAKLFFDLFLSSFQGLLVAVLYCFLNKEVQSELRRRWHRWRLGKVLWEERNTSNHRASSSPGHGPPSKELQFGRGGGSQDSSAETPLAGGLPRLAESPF
Procedure: as §1

[1] = HEK293, 0.1% bovine casein and 1.0% human serum albumin, 37° C., percent of maximal response to GIP(1-42)NH2, read-out: hGIPR Emax, % ± SEM

hGLP-1R, sequence (P43220 24-463): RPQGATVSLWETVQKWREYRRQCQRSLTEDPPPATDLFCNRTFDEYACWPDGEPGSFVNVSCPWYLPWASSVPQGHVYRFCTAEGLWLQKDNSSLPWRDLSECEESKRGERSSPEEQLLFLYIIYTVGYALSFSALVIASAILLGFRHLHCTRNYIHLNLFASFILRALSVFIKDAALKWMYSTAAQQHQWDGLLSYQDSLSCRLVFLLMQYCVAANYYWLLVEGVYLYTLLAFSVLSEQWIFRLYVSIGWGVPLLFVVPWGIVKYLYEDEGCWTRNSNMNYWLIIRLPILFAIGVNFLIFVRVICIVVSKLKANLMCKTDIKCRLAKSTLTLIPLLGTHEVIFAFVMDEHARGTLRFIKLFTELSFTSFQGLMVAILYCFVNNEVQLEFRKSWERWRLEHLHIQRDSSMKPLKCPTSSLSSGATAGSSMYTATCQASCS

CC[C@H](C)[C@H](NC(=O)[C@H](CC(C)C)NC(=O)[C@](C)(Cc1ccc(O)cc1)NC(=O)[C@@H](CCC(=O)O)NC(=O)[C@@H](NC(=O)[C@H](Cc1ccccc1)NC(=O)[C@H](CCCN)NC(=O)C(C)(C)NC(=O)[C@H](CCC(N)=O)NC(=O)[C@H](C)NC(=O)[C@H](CCCCNC(=O)COCCOCCNC(=O)COCCOCCNC(=O)CC[C@H](NC(=O)CCCCCCCCCOc1ccc(C(=O)O)cc1)C(=O)O)NC(=O)[C@H](CCCN)NC(=O)[C@H](CC(=O)O)NC(=O)[C@H](CC(C)C)NC(=O)[C@](C)(CC(C)C)NC(=O)[C@@H](NC(=O)C(C)(C)NC(=O)[C@H](Cc1ccncc1)NC(=O)[C@H](CC(=O)O)NC(=O)[C@H](CO)NC(=O)[C@@H](NC(=O)[C@](C)(Cc1ccccc1F)NC(=O)[C@@H](NC(=O)CNC(=O)[C@H](CCC(=O)O)NC(=O)C(C)(C)NC(=O)[C@@H](N)Cc1ccc(O)cc1)[C@@H](C)O)[C@@H](C)O)[C@@H](C)CC)[C@@H](C)CC)C(=O)N[C@@H](CCCCNC(=O)COCCOCCNC(=O)COCCOCCNC(=O)CC[C@H](NC(=O)CCCCCCCCCOc1ccc(C(=O)O)cc1)C(=O)O)C(=O)NCC(=O)NCC(=O)N1CCC[C@H]1C(=O)N[C@@H](CO)C(=O)N[C@@H](CO)C(=O)NCC(=O)N[C@@H](C)C(=O)N1CCC[C@H]1C(=O)N1CCC[C@H]1C(=O)N1CCC[C@H]1C(=O)N[C@@H](CO)C(N)=O [Example 351]
Emax (hGLP-1R; HEK293, read-out: hGLP-1R Emax, % ± SEM, cAMP, 37° C., 0.1% bovine casein and 1.0% human serum albumin): 91%
Emax (hGLP-1R; HEK293, read-out: hGLP-1R Emax, % ± SEM, cAMP, 37° C., 0.1% bovine casein, arithmetic mean): 100%
Emax (hGIPR; HEK293, read-out: hGIPR Emax, % ± SEM, cAMP, 37° C., 0.1% bovine casein and 1.0% human serum albumin, percent of maximal response to GIP(1-42)NH2): 67.9%

CC[C@H](C)[C@H](NC(=O)[C@H](CC(C)C)NC(=O)[C@](C)(Cc1ccc(O)cc1)NC(=O)[C@@H](CCC(=O)O)NC(=O)[C@@H](NC(=O)[C@H](Cc1ccccc1)NC(=O)[C@H](CCC(=O)O)NC(=O)C(C)(C)NC(=O)[C@H](CCC(N)=O)NC(=O)[C@H](C)NC(=O)[C@H](CCCCNC(=O)COCCOCCNC(=O)COCCOCCNC(=O)CCCCCCCCCCCCC(=O)O)NC(=O)[C@H](CCCN)NC(=O)[C@H](CC(=O)O)NC(=O)[C@H](CC(C)C)NC(=O)[C@](C)(CC(C)C)NC(=O)[C@@H](NC(=O)[C@H](CO)NC(=O)[C@H](Cc1ccc2ccccc2c1)NC(=O)[C@H](CC(=O)O)NC(=O)[C@H](CO)NC(=O)[C@@H](NC(=O)[C@](C)(Cc1ccccc1F)NC(=O)[C@@H](NC(=O)CNC(=O)[C@H](CCC(=O)O)NC(=O)C(C)(C)NC(=O)[C@@H](N)Cc1ccc(O)cc1)[C@@H](C)O)[C@@H](C)O)[C@@H](C)CC)[C@@H](C)CC)C(=O)N[C@@H](CCC(=O)O)C(=O)NCC(=O)NCC(=O)N1CCC[C@H]1C(=O)N[C@@H](CO)C(=O)N[C@@H](CO)C(=O)NCC(=O)N[C@@H](C)C(=O)N1CCC[C@H]1C(=O)N1CCC[C@H]1C(=O)N1CCC[C@H]1C(=O)N[C@@H](CO)C(=O)N[C@@H](CCCCNC(=O)COCCOCCNC(=O)COCCOCCNC(=O)CCCCCCCCCCCCC(=O)O)C(N)=O [Example 257]
Emax (hGLP-1R; HEK293, cAMP, 37° C., 0.1% bovine casein, arithmetic mean, read-out: hGLP-1R Emax, % ± SEM): 82%
Emax (hGIPR; [1]): 72.2%
Emax (hGIPR; HEK293, cAMP, 37° C., 0.1% bovine casein, percent of maximal response to GIP(1-42)NH2, arithmetic mean, read-out: hGIPR Emax, % ± SEM): 90.3%

CC[C@H](C)[C@H](NC(=O)[C@H](CC(C)C)NC(=O)[C@](C)(Cc1ccc(O)cc1)NC(=O)[C@@H](CCC(=O)O)NC(=O)[C@@H](NC(=O)[C@H](Cc1ccccc1)NC(=O)[C@H](CCC(=O)O)NC(=O)C(C)(C)NC(=O)[C@H](CCC(N)=O)NC(=O)[C@H](C)NC(=O)[C@H](CCCCNC(=O)COCCOCCNC(=O)COCCOCCNC(=O)CC[C@H](NC(=O)CCCCCCCCCCCCC(=O)O)C(=O)O)NC(=O)[C@H](CCCN)NC(=O)[C@H](CC(=O)O)NC(=O)[C@H](CC(C)C)NC(=O)[C@](C)(CC(C)C)NC(=O)[C@@H](NC(=O)[C@H](CO)NC(=O)[C@H](Cc1ccc(C(=O)O)cc1)NC(=O)[C@H](CC(=O)O)NC(=O)[C@H](CO)NC(=O)[C@@H](NC(=O)[C@](C)(Cc1ccccc1F)NC(=O)[C@@H](NC(=O)CNC(=O)[C@H](CCC(=O)O)NC(=O)C(C)(C)NC(=O)[C@@H](N)Cc1ccc(O)cc1)[C@@H](C)O)[C@@H](C)O)[C@@H](C)CC)[C@@H](C)CC)C(=O)N[C@@H](CCC(=O)O)C(=O)NCC(=O)NCC(=O)N[C@@H](CCCCNC(=O)COCCOCCNC(=O)COCCOCCNC(=O)CC[C@H](NC(=O)CCCCCCCCCCCCC(=O)O)C(=O)O)C(=O)N[C@@H](CO)C(=O)N[C@@H](CO)C(=O)NCC(=O)N[C@@H](C)C(=O)N1CCC[C@H]1C(=O)N1CCC[C@H]1C(=O)N1CCC[C@H]1C(=O)N[C@@H](CO)C(N)=O [Example 96]
EC50 (hGCGR): > 9950 nM

CC[C@H](C)[C@H](NC(=O)[C@H](CC(C)C)NC(=O)[C@](C)(Cc1ccc(O)cc1)NC(=O)[C@@H](CCC(=O)O)NC(=O)[C@@H](NC(=O)[C@H](Cc1ccccc1)NC(=O)[C@H](CCC(=O)O)NC(=O)C(C)(C)NC(=O)[C@H](CCC(N)=O)NC(=O)[C@H](C)NC(=O)[C@H](CCCCNC(=O)COCCOCCNC(=O)COCCOCCNC(=O)CC[C@H](NC(=O)CCCCCCCCCCCCC(=O)O)C(=O)O)NC(=O)[C@H](CCCN)NC(=O)[C@H](CC(=O)O)NC(=O)[C@H](CC(C)C)NC(=O)[C@](C)(CC(C)C)NC(=O)[C@@H](NC(=O)[C@H](CO)NC(=O)[C@H](Cc1csc2ccccc12)NC(=O)[C@H](CC(=O)O)NC(=O)[C@H](CO)NC(=O)[C@@H](NC(=O)[C@](C)(Cc1ccccc1F)NC(=O)[C@@H](NC(=O)CNC(=O)[C@H](CCC(=O)O)NC(=O)C(C)(C)NC(=O)[C@@H](N)Cc1ccc(O)cc1)[C@@H](C)O)[C@@H](C)O)[C@@H](C)CC)[C@@H](C)CC)C(=O)N[C@@H](CCC(=O)O)C(=O)NCC(=O)NCC(=O)N[C@@H](CCCCNC(=O)COCCOCCNC(=O)COCCOCCNC(=O)CC[C@H](NC(=O)CCCCCCCCCCCCC(=O)O)C(=O)O)C(=O)N[C@@H](CO)C(=O)N[C@@H](CO)C(=O)NCC(=O)N[C@@H](C)C(=O)N1CCC[C@H]1C(=O)N1CCC[C@H]1C(=O)N1CCC[C@H]1C(=O)N[C@@H](CO)C(N)=O [Example 142]
EC50 (hGCGR): > 9950 nM

CC[C@H](C)[C@H](NC(=O)[C@H](CC(C)C)NC(=O)[C@](C)(Cc1ccc(O)cc1)NC(=O)[C@@H](CCC(=O)O)NC(=O)[C@@H](NC(=O)[C@H](Cc1ccccc1)NC(=O)[C@H](CCC(=O)O)NC(=O)C(C)(C)NC(=O)[C@H](CCC(N)=O)NC(=O)[C@H](C)NC(=O)[C@H](CCCCNC(=O)[C@@H](N)CCCCNC(=O)CC[C@H](NC(=O)CC[C@H](NC(=O)CCCCCCCCCCCCC(=O)O)C(=O)O)C(=O)O)NC(=O)[C@H](CCCN)NC(=O)[C@H](CC(=O)O)NC(=O)[C@H](CC(C)C)NC(=O)[C@](C)(CC(C)C)NC(=O)[C@@H](NC(=O)[C@H](CO)NC(=O)[C@H](Cc1ccncc1)NC(=O)[C@H](CC(=O)O)NC(=O)[C@H](CO)NC(=O)[C@@H](NC(=O)[C@](C)(Cc1ccccc1F)NC(=O)[C@@H](NC(=O)CNC(=O)[C@H](CCC(=O)O)NC(=O)C(C)(C)NC(=O)[C@@H](N)Cc1ccc(O)cc1)[C@@H](C)O)[C@@H](C)O)[C@@H](C)CC)[C@@H](C)CC)C(=O)N[C@@H](CCC(=O)O)C(=O)NCC(=O)NCC(=O)N[C@@H](CCCCNC(=O)[C@@H](N)CCCCNC(=O)CC[C@H](NC(=O)CC[C@H](NC(=O)CCCCCCCCCCCCC(=O)O)C(=O)O)C(=O)O)C(=O)N[C@@H](CO)C(=O)N[C@@H](CO)C(=O)NCC(=O)N[C@@H](C)C(=O)N1CCC[C@H]1C(=O)N1CCC[C@H]1C(=O)N1CCC[C@H]1C(=O)N[C@@H](CO)C(N)=O [Example 39]
Emax (hGIPR; [1]): 86.8 ± 3.27%
Emax (hGIPR; HEK293, percent of maximal response to GIP(1-42)NH2, 37° C., 0.1% bovine casein, arithmetic mean, read-out: hGIPR Emax, % ± SEM): 96.5 ± 1.44%

— US20230265151A1, “GIP/GLP1 CO-AGONIST COMPOUNDS” (priority 2020, published 2023)
